Measurements taken from patent US12030883B2, “Hetero-tricyclic compounds as inhibitors of KRAS” (Incyte Corporation, priority 2021, dated 2024).

Key:
KRAS G12V = KRAS G12V (Homo sapiens, UniProt P01116, G12V); assay: GDP-GTP exchange assay, KRAS G12V (bodipy-GDP/GppNHp, SOS1); assay type: biochemical; conditions: bodipy-loaded KRAS G12V 2.5 nM, 3 hours pre-incubation with inhibitor, SOS1 150 nM, GppNHp 500 uM; read-out: G12V_exchange (KRAS_G12V exchange assay IC50)
Protocol: (§1) The inhibitor potency of the exemplified compounds was determined in a fluorescence based guanine nucleotide exchange assay, which measures the exchange of bodipy-GDP (fluorescently labeled GDP) for GppNHp (Non-hydrolyzable GTP analog) to generate the active state of KRAS in the presence of SOS1 (guanine nucleotide exchange factor). Inhibitors were serially diluted in DMSO and a volume of 0.1 μL was transferred to the wells of a black low volume 384-well plate. Five μL/well volume of bodipy-loaded KRAS G12D or G12V diluted to a final concentration of 2.5 nM in assay buffer (25 mM Hepes pH 7.5, 50 mM NaCl, 10 mM MgCl2 and 0.01% Brij-35) was added to the plate and pre-incubated with inhibitor for 4 hours (G12D) or 3 hours (G12V) at ambient temperature. A cyclic peptide described to selectively bind G12D mutant (Sakamoto et al., BBRC 484.3 (2017), 605-611) or internal compounds with confirmed binding were used as positive controls in the assay plates. The exchange was initiated by the addition of a 5 μL/well volume containing 1 mM GppNHp and 300 nM SOS1 in assay buffer. The 10 μL/well reaction concentration of the bodipy-loaded KRAS G12D or G12V, GppNHp, and SOS1 were 2.5 nM, 500 uM, and 150 nM, respectively.
(§2) Either GraphPad prism or XLfit was used to analyze the data. The IC50 values were derived by fitting the data to a four parameter logistic equation producing a sigmoidal dose-response curve with a variable Hill coefficient. Prism equation: Y=Bottom+(Top−Bottom)/(1+10^((LogIC50-X)*Hill slope)); XLfit equation: Y=(A+((B−A)/(1+((X/C)^D)))) where X is the logarithm of inhibitor concentration and Y is the response.

KRAS G12D [1] = biological target: T1, KRAS G12D (Homo sapiens, UniProt P01116, G12D); assay: KRAS_G12D pERK assay (cellular pERK HTRF assay); assay type: cell-based; set-up: host or cells: A427 or HPAF-II; conditions: KRAS G12D cells (A427, HPAF-II named in method), 2 hours incubation, Phospho-ERK 1/2 HTRF; read-out: G12D_PERK (KRAS_G12D pERK assay IC50)
T1 sequence (P01116 1-188 isoform P01116-2 G12D): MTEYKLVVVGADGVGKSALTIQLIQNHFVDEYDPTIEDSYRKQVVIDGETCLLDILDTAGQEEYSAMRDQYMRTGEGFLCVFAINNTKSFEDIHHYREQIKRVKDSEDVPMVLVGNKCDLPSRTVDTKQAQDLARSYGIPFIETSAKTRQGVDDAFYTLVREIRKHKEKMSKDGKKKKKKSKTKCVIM
Protocol: MIA PaCa-2 (KRAS G12C; ATCC® CRL-1420), A427 (KRAS G12D; ATCC® HTB53), HPAF-II (KRAS G12D; ATCC® CRL-1997) and NCI-H838 (KRAS WT; ATCC® CRL-5844) cells are purchased from ATCC and maintained in RPMI 1640 media supplemented with 10% FBS (Gibco/Life Technologies). The cells are plated at 5000 cells per well (8 uL) into Greiner 384-well low volume, flat-bottom, tissue culture treated white plates and incubated overnight at 37° C., 5% CO2. The next morning, test compound stock solutions are diluted in media at 3× the final concentration, and 4 uL are added to the cells. The plate is mixed by gentle rotation for 30 seconds (250 rpm) at room temperature. The cells are incubated with the KRAS G12C and G12D compounds for 4 hours or 2 hours respectively at 37° C., 5% CO2.
4 uL of 4× lysis buffer with blocking reagent (1:25) (Cisbio) are added to each well and plates are rotated gently (300 rpm) for 30 minutes at room temperature. 4 uL per well of Cisbio anti Phospho-ERK 1/2 d2 is mixed with anti Phospho-ERK 1/2 Cryptate (1:1) are added to each well, mixed by rotation and incubated overnight in the dark at room temperature. Plates are read on the Pherastar plate reader at 665 nm and 620 nm wavelengths. IC50 determination is performed by fitting the curve of inhibitor percent inhibition versus the log of the inhibitor concentration using the GraphPad Prism 7 software.

KRAS G12D [2] = biological target: T1, KRAS G12D; assay: GDP-GTP exchange assay, KRAS G12D (bodipy-GDP/GppNHp, SOS1); assay type: biochemical; conditions: bodipy-loaded KRAS G12D 2.5 nM, 4 hours pre-incubation with inhibitor, SOS1 150 nM, GppNHp 500 uM; read-out: G12D_exchange (KRAS_G12D exchange assay IC50)
Protocol: as §1, §2

Chain of KRAS G12V (P01116 1-188 isoform P01116-2 G12V): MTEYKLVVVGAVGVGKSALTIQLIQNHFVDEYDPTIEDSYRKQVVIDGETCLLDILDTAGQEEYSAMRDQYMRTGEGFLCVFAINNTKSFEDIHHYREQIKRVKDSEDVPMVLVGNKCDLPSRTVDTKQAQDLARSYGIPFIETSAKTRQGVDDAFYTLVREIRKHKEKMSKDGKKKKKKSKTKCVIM

Structure (SMILES) | IC50 (KRAS G12V) | IC50 (KRAS G12D [1]) | IC50 (KRAS G12D [2])
CN(C)C1CN(c2nc3c(F)c(-c4cc(O)cc5ccccc45)c(CCC#N)cc3c3c2NC(=O)CN3C2C3CNC2C3)C1 (single isomer, unassigned) [Example 13a, 3-(1-((endo)-2-Azabicyclo[2.1.1]hexan-5-yl)-5-(3-(dimethylamino)azetidin-1-yl)-7-fluoro-8-(3-hydroxynaphthalen-1-yl)-3-oxo-1,2,3,4-tetrahydropyrazino[2,3-c]quinolin-9-yl)propanenitrile] | ≤ 100 nM | 1000 to 5000 nM | ≤ 100 nM
C[C@H](Oc1nc2c(F)c(-c3cc(O)cc4ccc(F)cc34)c(CCC#N)cc2c2c1NC(=O)CN2C1C2CNC1C2)[C@@H]1CCCN1C (single isomer, unassigned) [Example 4d] | 100 to 1000 nM | 1000 to 5000 nM | ≤ 100 nM
N#CCCc1cc2c3c(c(OC[C@@]45CCCN4C[C@H](F)C5)nc2c(F)c1-c1cc(O)cc2ccccc12)NC(=O)CN3C1C2CNC1C2 (single isomer, unassigned) [Example 10a] | ≤ 100 nM | 1000 to 5000 nM | ≤ 100 nM
C[C@H](Oc1nc2c(F)c(-c3cccc4ccc(F)cc34)c(CCC#N)cc2c2c1NC(=O)CN2C1C2CNC1C2)[C@@H]1CCCN1C (single isomer, unassigned) [Example 3a] | ≤ 100 nM | ≤ 100 nM | ≤ 100 nM
CN1CCC[C@H]1COc1nc2c(F)c(-c3cc(O)cc4ccccc34)c(CCC#N)cc2c2c1CCCN2C1C2CNC1C2 (single isomer, unassigned) [Example 12b] | ≤ 100 nM | 100 to 1000 nM | ≤ 100 nM
N#CCCc1cc2c3c(c(-c4ccc5cccnc5c4)nc2c(F)c1-c1cc(O)cc2ccccc12)NC(=O)CN3C1C2CNC1C2 (single isomer, unassigned) [Example 6a, 3-(1-((endo)-2-Azabicyclo[2.1.1]hexan-5-yl)-7-fluoro-8-(3-hydroxynaphthalen-1-yl)-3-oxo-5-(quinolin-7-yl)-1,2,3,4-tetrahydropyrazino[2,3-c]quinolin-9-yl)propanenitrile] | ≤ 100 nM | 1000 to 5000 nM | ≤ 100 nM
Cc1cc2c(nc(O[C@@H](C)[C@@H]3CCCN3C)c3c(=O)ccn([C@H]4[C@H]5CN[C@@H]4C5)c32)c(F)c1-c1cccc2c1C(C#N)CCC2 (stereo partly drawn) [Example 23, 8-(1-((1R,4R,5S)-2-azabicyclo[2.1.1]hexan-5-yl)-7-fluoro-9-methyl-5-((S)-1-((S)-1-methylpyrrolidin-2-yl)ethoxy)-4-oxo-1,4-dihydrobenzo[h][1,6]naphthyridin-8-yl)-1,2,3,4-tetrahydronaphthalene-1-carbonitrile] | ≤ 100 nM | ≤ 100 nM | ≤ 100 nM
C[C@@H](CN(C)C)Oc1nc2c(F)c(-c3cc(O)cc4ccccc34)c(CCC#N)cc2c2c1NC(=O)CN2C1C2CNC1C2 (single isomer, unassigned) [Example 11c] | ≤ 100 nM | 100 to 1000 nM | ≤ 100 nM
C[C@H](Oc1nc2c(F)c(-c3cc(O)cc4ccccc34)c(CCC#N)cc2c2c1CCCN2C1C2CNC1C2)[C@@H]1CCCN1C (single isomer, unassigned) [Example 15b] | ≤ 100 nM | ≤ 100 nM | ≤ 100 nM
Cn1cnc(-c2nc3c(F)c(-c4cc(O)cc5ccccc45)c(CCC#N)cc3c3c2NC(=O)CN3C2C3CNC2C3)c1 (single isomer, unassigned) [Example 7a, 3-(1-((endo)-2-Azabicyclo[2.1.1]hexan-5-yl)-7-fluoro-8-(3-hydroxynaphthalen-1-yl)-5-(1-methyl-1H-imidazol-4-yl)-3-oxo-1,2,3,4-tetrahydropyrazino[2,3-c]quinolin-9-yl)propanenitrile] | ≤ 100 nM | 100 to 1000 nM | ≤ 100 nM
C[C@H](Oc1nc2c(F)c(-c3cc(O)cc4ccc(F)cc34)c(CCC#N)cc2c2c1NC(=O)CN2C1C2CNC1C2)[C@@H]1CCCN1C (single isomer, unassigned) [Example 4c] | ≤ 100 nM | ≤ 100 nM | ≤ 100 nM
CNC(=O)c1ccc(-c2nc3c(F)c(-c4cc(O)cc5ccccc45)c(CCC#N)cc3c3c2NC(=O)CN3C2C3CNC2C3)cn1 (single isomer, unassigned) [Example 5a, 5-(1-((endo)-2-Azabicyclo[2.1.1]hexan-5-yl)-9-(2-cyanoethyl)-7-fluoro-8-(3-hydroxynaphthalen-1-yl)-3-oxo-1,2,3,4-tetrahydropyrazino[2,3-c]quinolin-5-yl)-N-methylpicolinamide] | ≤ 100 nM | 5000 to 10000 nM | ≤ 100 nM
C[C@@H](CN(C)C)Oc1nc2c(F)c(-c3cc(O)cc4ccccc34)c(CCC#N)cc2c2c1CCCN2C1C2CNC1C2 (single isomer, unassigned) [Example 16b] | ≤ 100 nM | 100 to 1000 nM | ≤ 100 nM
N#CCCc1cc2c3c(cnc2c(F)c1-c1cc(O)cc2ccccc12)N(CC(N)=O)C(=O)CN3C1C2CNC1C2 (single isomer, unassigned) [Example 19a, 2-(1-((endo)-2-Azabicyclo[2.1.1]hexan-5-yl)-9-(2-cyanoethyl)-7-fluoro-8-(3-hydroxynaphthalen-1-yl)-3-oxo-2,3-dihydropyrazino[2,3-c]quinolin-4(1H)-yl)acetamide] | 100 to 1000 nM | – | ≤ 100 nM
C[C@H](Oc1nc2c(F)c(-c3c[nH]c4ccccc34)c(CCC#N)cc2c2c1NC(=O)CN2C1C2CNC1C2)[C@@H]1CCCN1C (single isomer, unassigned) [Example 1b] | 100 to 1000 nM | – | 100 to 1000 nM

Results, then the compound that gave them:

IC50 (KRAS G12V) | IC50 (KRAS G12D [1]) | IC50 (KRAS G12D [2]) | Structure (SMILES)
≤ 100 nM | 100 to 1000 nM | ≤ 100 nM | CC1Cc2c(OC[C@@H]3CCCN3C)nc3c(F)c(-c4cc(O)cc5ccccc45)c(CCC#N)cc3c2N(C2C3CNC2C3)C1 (single isomer, unassigned) [Example 14a]
≤ 100 nM | 1000 to 5000 nM | ≤ 100 nM | CNC(=O)c1cccc(-c2nc3c(F)c(-c4cc(O)cc5ccccc45)c(CCC#N)cc3c3c2NC(=O)CN3C2C3CNC2C3)c1 (single isomer, unassigned) [Example 9a, 3-(1-((endo)-2-Azabicyclo[2.1.1]hexan-5-yl)-9-(2-cyanoethyl)-7-fluoro-8-(3-hydroxynaphthalen-1-yl)-3-oxo-1,2,3,4-tetrahydropyrazino[2,3-c]quinolin-5-yl)-N-methylbenzamide]
≤ 100 nM | 100 to 1000 nM | ≤ 100 nM | C[C@H](Oc1nc2c(F)c(-c3cccc(Cl)c3Cl)c(CCC#N)cc2c2c1NC(=O)CN2C1C2CNC1C2)[C@@H]1CCCN1C (single isomer, unassigned) [Example 2b]
≤ 100 nM | 5000 to 10000 nM | ≤ 100 nM | C[C@H](Oc1nc2c(F)c(-c3cccc(Cl)c3Cl)c(CCC#N)cc2c2c1c(=O)c(-c1cnn(C)c1)cn2[C@H]1[C@H]2CN[C@@H]1C2)[C@@H]1CCCN1C (single isomer, unassigned) [Example 24a]
≤ 100 nM | 100 to 1000 nM | ≤ 100 nM | C[C@H](Oc1nc2c(F)c(-c3cccc(Cl)c3Cl)c(CCC#N)cc2c2c1c(=O)c(-c1cnn(C)c1)cn2[C@H]1[C@H]2CN[C@@H]1C2)[C@@H]1CCCN1C (single isomer, unassigned) [Example 24b]
≤ 100 nM | ≤ 100 nM | ≤ 100 nM | C[C@H](Oc1nc2c(F)c(-c3c[nH]c4ccccc34)c(CCC#N)cc2c2c1NC(=O)CN2C1C2CNC1C2)[C@@H]1CCCN1C (single isomer, unassigned) [Example 1a]
